Experimental data reported in PubChem BioAssay AID179 (DTP/NCI, 2004).
“And” between values parts separate entries of the source, which are not always exact repeats. Identical values can stand only once. The source made the active and inactive calls.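 How the source made its calls: active means compounds giving half or more protection of infected cells from virus-caused growth loss, again on retest; inactive means the rest.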

Test system: CEM cells HIV-1 protection, formazan growth assay
Assay: NCI AIDS Antiviral Assay
Settings: for IC50: measured here: growth of uninfected CEM cells
Outline: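 Protection of CEM cells against HIV-1 measured as cell growth via soluble formazan read-out, with five concentrations tested on both infected and uninfected cells; failure to protect may reflect toxicity.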

Structure (SMILES)	EC50	IC50	outcome
O=C1C(=O)N(CNC(c2ccccc2)c2ccccc2)c2ccccc21	> 126 µM	102 µM	
CC(=O)C(C(c1ccccc1)N1CCCc2ccccc21)N1CCOCC1 (centres undefined)	> 200 µM	61.7 µM	
CN(C)c1nc(N(C)C)nc(N(C)CN(C)c2nc(N(C)C)nc(N(C)C)n2)n1	> 50.1 µM	> 50.1 µM	
O=C1CC(C(O)CO)CC(=O)N1 (centres undefined)	> 200 µM	> 200 µM	
O=C(O)CSc1c([N+](=O)[O-])cc(C(F)(F)F)cc1[N+](=O)[O-]	> 200 µM	43.7 µM	
O=C(O)c1ccc(CS(=O)(=O)c2ccc([N+](=O)[O-])cc2)cc1	> 22.4 µM	> 22.4 µM	
CCOC(=O)C1Cc2ccc3c4c(ccc(c24)C1)CC(C(=O)OCC)C3			inactive
CC(C)(Cc1ccccc1)NC1=NCCO1	> 200 µM	> 200 µM	
Cc1nc(N)c(N2CCN(CN)CC2)c(=O)[nH]1	> 200 µM	> 200 µM	
CC(=O)C1(c2ccccc2)CCNCC1			inactive
COC(=O)C1=C(C(=O)OC)C2(C(=O)OC)OC1(OC)C(C1(C(=O)OC)C(C(=O)OC)=C1C(=O)OC)=C2C(=O)OC (centres undefined)			inactive
N#Cc1nsnc1-c1nc(-c2nsnc2C#N)nc(-c2nsnc2C#N)n1	> 200 µM	141 µM	
CC1CC(=O)Nc2ccc(Cl)cc2N1C(=O)CN1CCC(CCCCN(C)C)CC1 (centres undefined)	> 251 µM	129 µM	
NC1=NC2OC(CO)C(O)C2O1 (centres undefined)	> 200 µM	> 200 µM	
O=C1C(=O)N(c2ccc(Cl)cc2)C(=O)C(=O)C1c1nc2ccccc2s1	> 18.6 µM	> 18.6 µM	
Cc1nc2c(N)c3nc(C)n(N)c(=O)c3cc2c(=O)n1N	> 2.14 µM	> 2.14 µM	
O=S1(=O)CCN(Cc2ccccc2)/C1=N\S(=O)(=O)c1ccc(Cl)cc1	> 200 µM	17 µM	
COC(=O)c1c(C)cccc1C1CN=NC12Cc1cc(C)c(C)cc1C2=O (centres undefined)	> 200 µM	120 µM	
FC(F)(F)c1ccc(C2=N/S(c3ccccc3)=N\C(c3ccc(C(F)(F)F)cc3)=N/S(c3ccccc3)=N\2)cc1 (centres undefined)	> 50.1 µM	> 50.1 µM	
COC(=O)C1C(C(=O)OC)N(Cc2ccccc2)C(=O)N1Cc1ccccc1 (centres undefined)	> 200 µM	120 µM	
CCC(C)CCOC(=O)c1ccc(N=Cc2ccc(C=Nc3ccc(C(=O)OCCC(C)CC)cc3)cc2)cc1 (centres undefined)	> 6.61 µM	> 6.61 µM	
O=C(O)C(F)(OC(F)(F)C(F)(OC(F)(F)C(F)(F)C(F)(F)F)C(F)(F)F)C(F)(F)F (centres undefined)	> 200 µM	> 200 µM	
O=C(Nc1noc(-c2ccccc2)n1)c1ccccc1CNc1noc(-c2ccccc2)n1	> 200 µM	> 200 µM	

Structure (SMILES)	EC50	IC50	outcome
Nc1ccc2c(c1)S(=O)(=O)c1cc(N)ccc1-2	> 200 µM	> 200 µM	
O=c1c2ccc(Br)cc2nc(-c2ccccc2)n1NC1OC(CO)C(O)C(O)C1O (centres undefined)			inactive
CC1CNc2cccc3[nH]c(=S)n(c23)C1 (centres undefined)	> 200 µM	> 200 µM	
NNc1nnc(-c2ccccc2)nc1Cc1ccccc1	> 25.7 µM	13.8 µM	
COC(=O)c1ccc(NCC2=CC(=O)C=CC2=O)cc1	> 200 µM	1 µM	
c1ccc(C(NC2=NCCO2)C2CC2)cc1 (centres undefined)	> 200 µM	45.7 µM	
O=c1nc(NC2CCCCO2)ccn1CCO (centres undefined)	> 1050 µM	> 1050 µM	
O=C1CCC(c2ccccc2)(C2(c3ccccc3)CCC(=O)O2)O1 (centres undefined)	> 200 µM	151 µM	
CS(=O)(=O)N1CC(CCl)c2ccc(SSc3ccc4c(c3)N(S(C)(=O)=O)CC4CCl)cc21 (centres undefined)			inactive
Cc1ccc(C)c2c1C1CCCCC3(OCCCO3)C21O (centres undefined)	> 200 µM	> 200 µM	
C=C(C)C(OC(C)=O)C(OC(C)=O)c1c(OC)ccc2ccc(=O)oc12 (centres undefined)	> 50.1 µM	> 50.1 µM	
C=CC(C)(C)C(=C)C(=O)N(C)c1ccccc1I	> 200 µM	89.1 µM	
O=S1c2ccccc2N=C(c2ccc3ccccc3c2)CC1C1=CC=CCC1 (centres undefined)	> 18.6 µM	> 18.6 µM	
CCOC(=O)CC(=O)Nc1cccc2[nH]cnc12	> 200 µM	> 200 µM	
CCOC(=O)c1c(NS(=O)(=O)c2ccc(C)cc2)sc(C)c1-c1ccccc1	> 200 µM	21.9 µM	
NCCS/C=C/C(=O)OCc1ccc(Br)cc1	> 708 µM	97.7 µM	
c1cn(C23C4C5C6C4C2C6C53)cn1 (centres undefined)	> 200 µM	> 200 µM	
OC(c1ccsc1)c1ccsc1	> 200 µM	> 200 µM	
Cc1cn(C2OC(CO)C(CC(N)=O)C2O)c(=O)[nH]c1=O (centres undefined)	> 200 µM	> 200 µM	
Cc1cc2nc(NS(=O)(=O)c3cc(C)c(Cl)cc3S)[nH]c2cc1C	> 200 µM	> 200 µM	
O=[N+]([O-])c1cccnc1-n1cnc2ccccc21	> 200 µM	> 100 µM	
Cc1[nH]nc(-c2ccon2)c1N=O	> 200 µM	8.91 µM	
O=C(/C=C/c1ccccc1O)C(c1ccccc1)c1ccccc1	> 12 µM	> 12 µM	

Structure (SMILES)	EC50	IC50	outcome
CN1CCN(CCCN2c3ccccc3Sc3ccc(Cl)cc32)CC1	> 200 µM	3.72 µM	
CCCCCC1C2C(=O)NC(=O)C1C(=O)NC2=O (centres undefined)	> 1000 µM	> 1000 µM	
C=CCCCCOC1C=CC(O)C(CO)O1 (centres undefined)	> 200 µM	> 200 µM	
CC(=O)OCC1OC(n2c(-c3ccc(Cl)cc3)cc(-c3ccccc3)c(C#N)c2=S)C(OC(C)=O)C(OC(C)=O)C1OC(C)=O (centres undefined)	> 200 µM	145 µM	
C=CC[C@]12C=C(OC)[C@@H](O)[C@](OC)(C(c3cc(OC)c4c(c3)OCO4)[C@H]1C)[C@H]2OC(C)=O (some centres undefined)	> 200 µM	129 µM	
CCOC(=O)c1[nH]n(-c2ccccc2)c(=O)c1/C=N/C(=S)Nc1ccc(Cl)cc1Cl	> 200 µM	> 200 µM	
CN/N=C(\C(=O)Nc1ccc(C)c(C)c1)C(C(=O)OC)c1nc2ccc([N+](=O)[O-])cc2[nH]c1=O (centres undefined)	> 77.6 µM	> 77.6 µM	
O=C1c2ccccc2C(=O)N1/N=C\c1ccc([N+](=O)[O-])cc1	> 24.5 µM	> 24.5 µM	
Cc1ccc(-c2cc(-c3ccco3)c(C#N)c(=S)[nH]2)cc1	> 200 µM	120 µM	
Cc1cnoc1/N=C1\C=C(Nc2oncc2C)C(=O)c2ccccc21	> 4.37 µM	> 4.37 µM	
COc1ccc(-c2c(N)n(-c3nc4ccccc4s3)c(=O)c3cc([N+](=O)[O-])ccc23)cc1	> 100 µM	1.07 µM	
CCOC(=O)C1CCN(C(=O)c2ccccc2)c2scc(-c3ccccc3)c2C1=O (centres undefined)	> 100 µM	13.8 µM	
CC(C)(C)N=P(c1ccccc1)(c1ccccc1)c1ccccc1	> 200 µM	191 µM	
Cn1cc(NC(=O)Nc2cc(C(=O)Nc3cc(C(=O)Nc4cc(C(=O)Nc5ccc6cc(S(=O)(=O)O)cc(S(=O)(=O)O)c6c5)n(C)c4)n(C)c3)n(C)c2)cc1C(=O)Nc1cc(C(=O)Nc2cc(C(=O)Nc3ccc4cc(S(=O)(=O)O)cc(S(=O)(=O)O)c4c3)n(C)c2)n(C)c1	0.977 µM	117 µM	
Nc1ncnc2c1ncn2C1CC(CO)C(CO)C1 (centres undefined)	> 95.5 µM	> 95.5 µM	
O=C1CC(c2ccsc2)NC(=O)N1CCCl (centres undefined)	> 200 µM	> 200 µM	
CC(C)(C)OP(O)(=S)OC(C)(C)C	> 200 µM	> 200 µM	
Cc1cc2nnc(-c3ccc(C#N)cc3)n2c2nnnn12	> 200 µM		
COC(=O)Cc1ccc2c(c1)Sc1ccc(CC(=O)OC)cc1N2C	> 200 µM	4.47 µM	
Cc1cc(C)c2c(=N)c3ccccc3n(CCCCCCCCn3c4ccccc4c(=N)c4c(C)cc(C)nc43)c2n1	> 2 µM	0.251 µM	
CCOC(=O)/C(C#N)=C1\N[C@H](C(=O)OCC)CO1	> 977 µM	> 977 µM	
C=C1C(=O)c2cc3c(cc2C(c2cc(OC)c(OC)c(OC)c2)[C@@H]1C(=O)O)OCO3 (some centres undefined)			inactive
COC(=O)/C(=N\NC(N)=O)C(C(=O)C(=O)Nc1ccccc1OC)c1nc2ccc([N+](=O)[O-])cc2[nH]c1=O (centres undefined)	> 479 µM	229 µM	

Structure (SMILES)	EC50	IC50	outcome
Cc1cc(N2CCCC2)c([N+](=O)[O-])cc1[N+](=O)[O-]	> 200 µM	> 200 µM	
CCOC(=O)C1SC(=Nc2ccc(C)c(C)c2)N=C1C (centres undefined)	> 18.2 µM	> 18.2 µM	
NC(=O)N=Nc1c2ccccc2n2[nH]ccc12	> 200 µM	81.3 µM	
CNC(=O)OCc1c(COC(=O)NC)c2n(c1C)CS(=O)(=O)C2	> 200 µM	> 200 µM	
O=C(CCCC[n+]1ccccc1)Sc1ccccc1C(=O)Nc1ccc(S(=O)(=O)Nc2ccccn2)cc1	26.9 µM	115 µM	
O=[N+]([O-])c1ccc(C2CC(c3ccccc3Cl)=Nc3ccccc3S2=O)cc1 (centres undefined)	> 4.9 µM	> 4.9 µM	
C=C[C@H](C)[C@H](O)c1c(O)c2c(c3c(CCC)cc(=O)oc13)OC(C)(C)C=C2	> 200 µM	49 µM	
O=C1C(Cl)N(c2ccccc2[N+](=O)[O-])C1c1c[nH]c2ccccc12 (centres undefined)	> 275 µM	132 µM	
CCOC(=O)NC(=O)c1c[nH]c(=O)[nH]c1=O	> 1100 µM	> 1100 µM	
CCCCN(CCCC)C(=N)OC	> 200 µM	70.8 µM	
CCOc1ccc(NCc2cc(OC)c(OC)c(OC)c2)cc1	> 158 µM	0.324 µM and 0.339 µM	
N#COc1ccc(Oc2ccc(OC#N)cc2)cc1	> 141 µM	45.7 µM	
CSC(=Nc1ccccc1Cl)NC(=O)c1ccc(Br)cc1	> 10.2 µM	> 10.2 µM	
COc1ccc(C2=Nc3c(nc(OC)[nH]c3=O)NC(c3ccccc3)C2)cc1 (centres undefined)			inactive
CCCN1C(=O)/C(=C(/O)C(=O)OCC)C(c2ccc(OC)c(OC)c2)C1=O (centres undefined)			inactive
N#C/C(C(=S)Nc1ccc(Cl)cc1)=C1/Nc2ccccc2O1	> 200 µM	37.2 µM	
O=C(OC[C@H]1C[C@H]2C(=O)CCC[C@H]2O1)c1ccccc1	> 200 µM	> 200 µM	
c1ccc2c(c1)Nc1nc3nonc3nc1N2	> 200 µM	> 200 µM	
Oc1ccc(CCl)c2cccnc12	> 562 µM	10.2 µM	
COCC(C)(C)N=CN1Cc2cc3ccccc3nc2C1	> 178 µM	> 178 µM	
